The values that follow come from patent publication US10577363B2, “Substituted piperidine compounds” (EPIZYME, INC., priority 2014, dated 2020).

For test [1], the target named is T1, SMYD3 (Homo sapiens (Human), UniProt Q9H7B4). Nature of the test: SMYD3 biochemical assay (SPA, 3H-SAM methylation of MEKK2 protein substrate). To be noted: read-out: SMYD3 Biochem IC50 (μM)*. The method, boiled down:
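SPA methyltransferase format: tag-cleaved human SMYD3, insect-cell GST-MEKK2 protein substrate, 3H-SAM donor, 30 min RT enzyme–compound preincubation, 100 uM cold SAM quench.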

Test [2] addresses T1, SMYD3. Nature of the test: SMYD3 cell assay (Trimethyl-MEKK2 In-Cell Western in 293T/17 cells). The test is classed as cell-based. To be noted: read-out: SMYD3 Cell IC50 (μM)*. From the text:
Trimethyl-MEKK2-in-Cell Western Assay
MEM/Glutamax medium, Optimem Reduced Serum medium, penicillin-streptomycin, 0.05% trypsin and 1×D-PBS were purchased from Life Technologies, Grand Island, N.Y., USA. PBS-10× was purchased from Ambion, Life Technologies, Grand Island, N.Y., USA. PBS with Tween 20 (PBST (10×)) was purchased from KPL, Gaithersburg, Md., USA. Tet System FBS-approved FBS US Source was purchased from Clontech, Mountain View, Calif., USA. Odyssey blocking buffer, 800CW goat anti-rabbit IgG (H+L) antibody, 680CW Goat anti-mouse IgG (H+L) and Licor Odyssey infrared scanner were purchased from Licor Biosciences, Lincoln, Nebr., USA. Tri-methyl-Lysine [A260]-MEKK2 antibody, MEKK2 and SMYD3 plasmids were made at Epizyme. Anti-flag monoclonal mouse antibody was purchased from Sigma, St. Louis, Mo., USA. Methanol was purchased from VWR, Franklin, Mass., USA. 10% Tween 20 was purchased from KPL, Inc., Gaithersburg, Md., USA. Fugene was purchased from Promega, Madison, Wis., USA. The Biotek ELx405 was purchased from BioTek, Winooski, Vt., USA. The multidrop combi was purchased from Thermo Scientific, Waltham, Mass., USA.
Cell Treatment, in Cell Western (ICW) for Detection of Trimethyl-Lysine-MEKK2 and MEKK2.
Plasmids were prepared for delivery to cells by first mixing 1350 μL Opti-MEM with Fugene (81 μL) in a sterile Eppendorf and incubated for five minutes at room temperature (RT). […] Entire volume of Opti-MEM/Fugene mixture was then added to a microfuge tube containing DNA plasmid, mixed and then incubated×15 minutes at RT. […] Medium was then removed, and cells were washed once with PBS in the flask. Trypsin 0.05% (3 mL) was added and cells incubated for three minutes. Room temperature MEM+10% Tet system FBS was added and cells were mixed gently, and counted using the Vi-cell. Cells were seeded at 100,000 cells/mL in 50 μL MEM/10% Tet FBS/Pen/Strep to a 384 well black/clear poly-D-lysine coated plate containing test agent diluted in DMSO. The final top concentration of test compound was 40 μM. […] Plates were incubated×30 minutes at RT in low-airflow area, followed by incubation at 37° C. under 5% CO2 for 24 hours. Medium was aspirated from all wells of assay plates prior to fixation and permeabilization with ice cold (−20° C.) methanol (90 μL/well) for ten minutes. Plates were rinsed with PBS three times on BioTek ELx405. PBS was removed with a final aspiration, and Odyssey blocking buffer (50 μL/well) was added to each well and incubated for one hour at RT. Primary antibody solution was prepared (anti-trimethyl-MEKK2 at 1:600 dilution plus mouse anti-flag antibody at 1:10,000 dilution in diluent (Odyssey Blocking buffer+0.1% Tween 20)) and 20 μL per well was dispensed using the Multidrop Combi. Assay plates were then sealed with foil, and incubated overnight at 4° C. Plates were washed five times with PBS-Tween (1×) on Biotek ELx405 and blotted on paper towel to remove excess reagent.
First, the ratio for each well was determined by:
Each plate included fourteen control wells of DMSO only treatment (Minimum Inhibition) as well as fourteen control wells for maximum inhibition (Background). The average of the ratio values for each control type was calculated and used to determine the percent inhibition for each test well in the plate. Reference compound was serially diluted two-fold in DMSO for a total of nine test concentrations, beginning at 40 μM.
Percent inhibition was calculated (below).
Non-linear regression curves were generated to calculate the IC50 and dose-response relationship using triplicate wells per concentration of compound.

Some results are limits rather than exact numbers.

In general, IC50 refers to the concentration that inhibits the measured activity by half.

T1 sequence (Q9H7B4 whole entry): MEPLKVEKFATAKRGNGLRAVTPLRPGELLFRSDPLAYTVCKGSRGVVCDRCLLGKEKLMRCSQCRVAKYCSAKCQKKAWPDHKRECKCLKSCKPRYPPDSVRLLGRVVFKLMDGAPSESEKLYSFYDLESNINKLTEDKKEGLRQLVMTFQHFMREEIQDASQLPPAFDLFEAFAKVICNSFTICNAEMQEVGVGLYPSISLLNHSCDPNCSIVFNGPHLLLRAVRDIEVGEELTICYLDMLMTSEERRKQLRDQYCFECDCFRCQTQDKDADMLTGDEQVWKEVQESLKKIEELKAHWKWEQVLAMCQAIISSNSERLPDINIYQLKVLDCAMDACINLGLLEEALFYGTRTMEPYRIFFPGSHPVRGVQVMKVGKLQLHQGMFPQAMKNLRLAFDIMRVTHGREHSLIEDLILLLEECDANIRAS

For `C[C@@H]1CC(NC(=O)c2cc(C3CC3)on2)CCN1S(=O)(=O)CCN` (stereo partly drawn) [compound 77, N-((2R)-1-((2-aminoethyl)sulfonyl)-2-methylpiperidin-4-yl)-5-cyclopropylisoxazole-3-carboxamide], the 50% inhibitory concentration (IC50) stood at 0.633 µM on SMYD3 [1] and 2.91 µM on SMYD3 [2].

For `C[C@H]1CC(NC(=O)c2cc(C3CC3)on2)CCN1S(=O)(=O)CCN` (stereo partly drawn) [compound 78, N-((2S)-1-((2-aminoethyl)sulfonyl)-2-methylpiperidin-4-yl)-5-cyclopropylisoxazole-3-carboxamide], the half-inhibitory concentration (IC50) on SMYD3 [1] was 0.155 µM; on SMYD3 [2] it was 0.792 µM.

On to `N[C@H]1CC[C@H](C(=O)N2CC3CCC2CC3NC(=O)c2cc(C3CC3)on2)CC1` (some centres unmarked) [compound 88, N-(2-((1r,4r)-4-aminocyclohexane-1-carbonyl)-2-azabicyclo[2.2.2]octan-5-yl)-5-cyclopropylisoxazole-3-carboxamide], for which the IC50 is 0.156 µM at SMYD3 [1] and 2.5 µM at SMYD3 [2].

Consider `CC(C)C1CC(NC(=O)c2cc(C3CC3)on2)CCN1C(=O)[C@H]1CC[C@H](N)CC1` (some centres unmarked) [compound 99, N-(1-((1r,4r)-4-aminocyclohexane-1-carbonyl)-2-isopropylpiperidin-4-yl)-5-cyclopropylisoxazole-3-carboxamide], for which the values for the IC50 at SMYD3 [1] and at SMYD3 [2] were 0.23 µM and 3.05 µM, respectively.

For the compound `N[C@H]1CC[C@H](C(=O)N2[C@@H]3CC[C@H]2C[C@@H](NC(=O)c2cc(C4CC4)on2)C3)CC1` [compound 102, N-((1R,3R,5S)-8-((1r,4R)-4-aminocyclohexane-1-carbonyl)-8-azabicyclo[3.2.1]octan-3-yl)-5-cyclopropylisoxazole-3-carboxamide], the IC50 at SMYD3 [1] was found to be 0.106 µM; on SMYD3 [2], 1.7 µM.

For the compound `O=C(NC1CCN(C(=O)CC2CCNCC2)C(Cc2ccccc2)C1)c1cc(C2CC2)on1` (centres unmarked) [compound 109, N-(2-benzyl-1-(2-(piperidin-4-yl)acetyl)piperidin-4-yl)-5-cyclopropylisoxazole-3-carboxamide], the IC50 on SMYD3 [1] was 0.0968 µM; at SMYD3 [2], 1.93 µM.

Consider `CC[C@@H]1CC(NC(=O)c2cc(C3CC3)on2)CCN1C(=O)[C@H]1CC[C@H](N)CC1` (stereo partly drawn) [compound 110, N-((2R)-1-((1r,4R)-4-aminocyclohexane-1-carbonyl)-2-ethylpiperidin-4-yl)-5-cyclopropylisoxazole-3-carboxamide], for which the IC50 at SMYD3 [1] is 0.0994 µM; at SMYD3 [2] it was 0.893 µM.

For the compound `C[C@@H]1CC(NC(=O)c2cc(C3CC3)on2)CCN1C(=O)[C@H]1CC[C@H](N)CO1` (stereo partly drawn) [compound 118, N-((2R)-1-((2R,5S)-5-aminotetrahydro-2H-pyran-2-carbonyl)-2-methylpiperidin-4-yl)-5-cyclopropylisoxazole-3-carboxamide], the results for the IC50 on SMYD3 [1] and at SMYD3 [2] were 0.208 µM and 1.35 µM, respectively.

Consider `CN[C@H]1CC[C@H](C(=O)N2CCC(NC(=O)c3cc(C4CC4)on3)C[C@H]2C)CC1` (stereo partly drawn) [compound 124, 5-cyclopropyl-N-((2R)-2-methyl-1-((1r,4R)-4-(methylamino)cyclohexane-1-carbonyl)piperidin-4-yl)isoxazole-3-carboxamide], for which the IC50 at SMYD3 [1] came out at 0.274 µM; at SMYD3 [2], 2.24 µM.

On to `C[C@@H]1CN(C(=O)[C@H]2CC[C@H](N)CC2)CC[C@@H]1NC(=O)c1cc(C2CC2)on1` [compound 148, N-((3R,4S)-1-((1r,4R)-4-aminocyclohexane-1-carbonyl)-3-methylpiperidin-4-yl)-5-cyclopropylisoxazole-3-carboxamide], for which the IC50 at SMYD3 [1] stood at 0.282 µM; on SMYD3 [2], 1.81 µM.

As to `C[C@@H]1CN(C(=O)CC2CCNCC2)CC[C@@H]1NC(=O)c1cc(C2CC2)on1` [compound 149, 5-cyclopropyl-N-((3R,4S)-3-methyl-1-(2-(piperidin-4-yl)acetyl)piperidin-4-yl)isoxazole-3-carboxamide], the IC50 at SMYD3 [1] was 0.291 µM; on SMYD3 [2], 3.22 µM.

For the compound `NC1CCC(C(=O)N2CCC(NC(=O)c3cc(C4CC4)on3)C3(CC3)C2)CC1` (centres unmarked) [compound 156, N-(5-((1r,4r)-4-aminocyclohexane-1-carbonyl)-5-azaspiro[2.5]octan-8-yl)-5-cyclopropylisoxazole-3-carboxamide], the concentration for half-maximal inhibition (IC50) at SMYD3 [1] came to 0.245 µM; on SMYD3 [2] it was 1.76 µM.

`C[C@@H]1CC(NC(=O)c2cc(C3CC3)on2)CCN1C(=O)C1CC2(CC(N)C2)C1` (stereo partly drawn) [compound 175, N-((2R)-1-(6-aminospiro[3.3]heptane-2-carbonyl)-2-methylpiperidin-4-yl)-5-cyclopropylisoxazole-3-carboxamide]: the IC50 turned out to be 0.274 µM on SMYD3 [1] and 0.983 µM on SMYD3 [2].

Take `C[C@H]1C[C@@H](NC(=O)c2cc(C3CC3)on2)CCN1S(=O)(=O)CCCN` [compound 187]: the figures for the IC50 on SMYD3 [1] and at SMYD3 [2] were 0.00409 µM and 0.831 µM, respectively.

For the compound `C[C@@H]1C[C@H](NC(=O)c2cc(C3CC3)on2)CCN1S(=O)(=O)CCCN` [compound 189, N-((2R,4R)-1-((3-aminopropyl)sulfonyl)-2-methylpiperidin-4-yl)-5-cyclopropylisoxazole-3-carboxamide], the IC50 on SMYD3 [1] worked out at 0.0559 µM; at SMYD3 [2] it was 1.24 µM.

Regarding `C[C@@H]1CC(NC(=O)c2cc(C3CC3)on2)CCN1C(=O)C12C3C4C1C1C2C3C41N` (stereo partly drawn) [compound 202, N-((2R)-1-(4-aminocubane-1-carbonyl)-2-methylpiperidin-4-yl)-5-cyclopropylisoxazole-3-carboxamide], the IC50 came to 0.142 µM at SMYD3 [1] and 1.31 µM at SMYD3 [2].

Take `NCCCS(=O)(=O)N1CCC(NC(=O)c2cc(C3CC3)on2)CC1` [compound 210, N-(1-((3-aminopropyl)sulfonyl)piperidin-4-yl)-5-cyclopropylisoxazole-3-carboxamide]: the figures for the IC50 at SMYD3 [1] and at SMYD3 [2] were 0.321 µM and 2.9 µM, respectively.

Take `CC1(NC(=O)c2cc(C3CC3)on2)CCN(S(=O)(=O)CCCN)CC1` [compound 218, N-(1-((3-aminopropyl)sulfonyl)-4-methylpiperidin-4-yl)-5-cyclopropylisoxazole-3-carboxamide]: the IC50 at SMYD3 [1] stood at 0.23 µM; at SMYD3 [2], 1.42 µM.

Consider `CC1CC(NC(=O)c2cc(C3CC3)on2)CCN1C(=O)Cc1c[nH]cn1` (centres unmarked) [compound 227, N-(1-(2-(1H-imidazol-4-yl)acetyl)-2-methylpiperidin-4-yl)-5-cyclopropylisoxazole-3-carboxamide], for which the concentration for half-maximal inhibition (IC50) was above 10 µM at SMYD3 [1] and above 40 µM on SMYD3 [2].

With `C[C@H]1C[C@@H](NC(=O)c2cc(C3CC3)on2)CCN1S(=O)(=O)CCc1ccccc1` [compound 235, 5-cyclopropyl-N-((2S,4S)-2-methyl-1-(phenethylsulfonyl)piperidin-4-yl)isoxazole-3-carboxamide], the IC50 was 1.33 µM on SMYD3 [1] and 3.3 µM at SMYD3 [2].

Take `C[C@H]1C[C@H](NC(=O)c2cc(C3CC3)on2)CCN1S(=O)(=O)Cc1ccccc1` [compound 244, N-((2S,4R)-1-(benzylsulfonyl)-2-methylpiperidin-4-yl)-5-cyclopropylisoxazole-3-carboxamide]: the 50% inhibitory concentration (IC50) is above 10 µM on SMYD3 [1] and 14.1 µM at SMYD3 [2].

As for `CC1CN(C(=O)[C@H]2CC[C@H](N)CC2)C(C)CC1NC(=O)c1cc(C2CC2)on1` (some centres unmarked) [compound 263, N-(1-((1r,4r)-4-aminocyclohexane-1-carbonyl)-2,5-dimethylpiperidin-4-yl)-5-cyclopropylisoxazole-3-carboxamide], the IC50 came to 0.0322 µM on SMYD3 [1] and 0.569 µM at SMYD3 [2] (293T/17 cells).
